Measured values: article PMC3680490, “Fragment-Based Screening Maps Inhibitor Interactions in the ATP-Binding Site of Checkpoint Kinase 2” (PLoS ONE, 2013)
Marks after values point to notes of the source that are not given here.

Legend:
full-length CHK2 [1] = target: T1, full-length CHK2 (Homo sapiens, UniProt O96017); assay: High-concentration AlphaScreen kinase assay (phosphorylation of CDC25C peptide); type: biochemical; conditions: for inhibition at 300 µM: primary screening data, compound concentration 300 µM, mean ± SD of triplicate, read-out: AlphaScreen™ (percentage inhibition)
T1 construct: full-length human CHK2 (residues 1 to 543); 6xHis (N); made in house; host or cells: Sf9 insect cells (baculovirus)
T1 sequence (O96017 whole entry, the tested form may be a part): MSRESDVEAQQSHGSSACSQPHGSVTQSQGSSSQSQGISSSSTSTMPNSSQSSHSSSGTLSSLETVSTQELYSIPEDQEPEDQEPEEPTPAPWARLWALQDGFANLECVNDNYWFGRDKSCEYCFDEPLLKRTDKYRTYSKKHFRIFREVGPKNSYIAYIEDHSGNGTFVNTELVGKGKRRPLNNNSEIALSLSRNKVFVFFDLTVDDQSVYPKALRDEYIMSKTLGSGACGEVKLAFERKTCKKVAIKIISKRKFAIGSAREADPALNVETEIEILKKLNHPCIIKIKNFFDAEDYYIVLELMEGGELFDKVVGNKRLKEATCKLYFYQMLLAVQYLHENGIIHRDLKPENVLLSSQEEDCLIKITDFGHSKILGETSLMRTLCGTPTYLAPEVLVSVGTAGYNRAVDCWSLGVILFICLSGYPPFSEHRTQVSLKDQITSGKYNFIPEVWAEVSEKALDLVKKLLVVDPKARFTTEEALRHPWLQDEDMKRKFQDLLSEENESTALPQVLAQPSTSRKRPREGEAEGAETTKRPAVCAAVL
Method: To identify fragments binding in the ATP-binding-site of CHK2, we screened the in-house fragment library consisting of 1869 compounds, as described above, against full-length CHK2 using an AlphaScreen™ kinase assay, in which inhibition of full-length CHK2 was measured by a reduction in the phosphorylation of a CDC25C peptide (Figure S1). Because of the generally weak affinity of fragments, the assay was carried out at a high compound concentration (300 µM). […] All 45 hits were confirmed by re-assaying them under the same conditions. To eliminate potential false positives due to aggregation of poorly soluble fragments, or owing to interference with the AlphaScreen™ signal, the hits were assayed by including 0.01% (v/v) Triton™ X-100 in the assay buffer, and in the presence of phosphorylated rather than unphosphorylated peptide substrate, respectively. The average robust Z’ for the confirmation assays was 0.9. […] The final confirmed hit rate for the assay was 1.1%.
Full-length CHK2 was screened against the ICR fragment library consisting of 1869 fragments using a biochemical assay based on AlphaScreen™ technology in which the CHK2 kinase activity was measured by monitoring the phosphorylation of a CDC25C peptide using a phospho-specific antibody. Assay conditions were similar to those described by Hilton et al., but all fragments were screened at a final concentration of 300 µM. Amendments to the protocol included a change in the full-length CHK2 concentration to 2 nM and a final concentration of the antibody against phosphorylated CDC25C of 0.5 nM. For a positive control, 4-(2-amino-5-(thiophen-3-yl)pyridin-3-yl)benzoic acid (27, Figure S4, referred to as compound 19 in Hilton et al.) was added at a final concentration of 10 µM. The phosphorylation reaction was performed for 80 min at room temperature and stopped by the addition of 5 µL of the previously described detection buffer. Plates were incubated overnight at room temperature and in the dark, and the assay endpoint was measured using an Envision™ 2103 multilabel reader (Perkin Elmer Life Sciences, Seer Green, UK). Primary screening data were analyzed in ActivityBase (IDBS, Guildford, UK). Percentage inhibition was calculated as follows: 100*(1–(S–B)/(T–B)), where S represented the counts for each compound well, B the counts in the wells containing no enzyme, and T the counts in the total activity wells. The plates were assayed in triplicate and fragments with a percentage inhibition of 50% or more in at least two out of the three measurements were defined as initial hits. Initial hits were re-assayed under the same conditions in triplicate for reconfirmation. Furthermore, all hits were tested for interference by repeating the assay in the presence of phosphorylated rather than unphosphorylated peptide substrate, and for aggregation by including 0.01% (v/v) Triton™ X-100 in the assay buffer.

full-length CHK2 [2] = target: T1, full-length CHK2; assay: Microfluidic mobility shift assay for IC50 determination; type: biochemical; conditions: for Ligand Efficiency: calculated using mean mobility shift IC50; for IC50: mean ± SD of triplicate
Method: In addition, percentage inhibition and IC50 values for all follow-up compounds were determined in triplicate using this assay. […] An ECHO® 550 acoustic dispenser (Labcyte Inc™, Dublin, Ireland) was used to generate duplicate eight-point dilution curves directly into 384-well low-volume polystyrene assay plates (Corning Life Sciences, New York, USA). For each compound, a 10 mM stock concentration in 100% DMSO was used.
The plate was sealed and centrifuged for 1 min at 1000 rpm before incubation for 1 h at room temperature.
IC50 values were calculated from a four-parameter logistics fit of percentage inhibition versus concentration using the Studies package (from Dotmatics, Bishops Stortford, UK).

[3] = target: T2, kinase domain of CHK2 (CHK2-KD, residues 210-531) (Homo sapiens, UniProt O96017); assay: Thermal shift assay (SYPRO Orange); type: binding; conditions: for T m, ligand (standard deviations from the plate mean): highest value of two independent measurements, 2 mM fragment; for ΔT m, ligand: mean of two independent measurements, 2 mM ligand
T2 construct: The kinase domain of CHK2 (residues 210-531) was produced as a GST-fusion protein; GST (cleaved yes); made in house
T2 sequence (O96017 210-531): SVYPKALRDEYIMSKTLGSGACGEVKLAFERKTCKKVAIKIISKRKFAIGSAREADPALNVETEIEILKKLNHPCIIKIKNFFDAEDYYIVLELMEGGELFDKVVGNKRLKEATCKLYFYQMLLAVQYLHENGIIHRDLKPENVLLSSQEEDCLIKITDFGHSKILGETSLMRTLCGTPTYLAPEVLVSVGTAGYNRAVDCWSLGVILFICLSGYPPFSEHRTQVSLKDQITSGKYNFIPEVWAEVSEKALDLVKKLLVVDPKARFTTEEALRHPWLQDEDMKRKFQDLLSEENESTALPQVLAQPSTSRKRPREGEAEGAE
Method: In parallel, we screened the fragment library against the kinase domain of CHK2 (CHK2-KD, residues 210-531) using a thermal shift assay. In a thermal shift assay, the folding stability of a target protein is measured by its thermally-induced unfolding. An increase in melting temperature of a protein in the presence of a ligand is used to identify ligand binding, assuming that the bound ligand stabilizes the target protein and therefore increases the energy required for its thermal unfolding. The thermal unfolding of CHK2-KD was measured using the fluorescent dye SYPRO® Orange™, which is sensitive to its environment and preferentially binds to hydrophobic patches that are typically exposed upon protein unfolding. To identify the hit threshold, we calculated the standard deviation (SD) of the melting temperature of CHK2 in the presence of a ligand (T m, ligand) for each plate. Ligands with a T m, ligand value of more than 2 standard deviations above the mean T m, ligand for each plate in at least one of the duplicates were defined as hits. We calculated the mean change in melting temperature from duplicate measurements (ΔT m, ligand) by subtracting the mean melting temperature of six reference samples of protein without ligand (T m, 0) from the melting temperature of CHK2 samples with ligand (T m, ligand).
Thermal shift screening of the ICR fragment library against a truncated version of CHK2 comprising only the kinase domain (CHK2-KD), was carried out using an Opticon 2 RT-PCR machine (Bio-Rad, Hemel Hempstead, UK). […] All experiments were performed in white 96-well SuperPlate skirted PCR-plates (ABgene®, Thermo Scientific, Loughborough, UK). Fragments were screened at a final concentration of 2 mM in assay buffer containing a final concentration of 2% (v/v) DMSO and all measurements were carried out in duplicate. The well contents were mixed by centrifugation for 2 min at 500 g and pre-equilibrated for 5 min at 20°C before starting the thermal shift experiment. All melting curves were generated from 20°C to 95°C, raising the temperature in steps of 0.5°C and keeping it constant for 15 seconds at each step. […] MgATP (2 mM ATP and 5 mM MgCl2) in the presence of 2% (v/v) DMSO was used as a positive control. For each experiment, the data range of the protein unfolding transition was established using the Excel-based worksheet ‘DSF Analysis’, made available by the Structural Genomics Consortium (SGC), Oxford, and subsequently fitted with a Boltzmann sigmoidal equation using GraphPad Prism version 5 (GraphPad Software, San Diego, California, USA, www.graphpad.com), from which the melting temperature T m was calculated. The change in melting temperature caused by ligand binding, expressed as the mean from duplicate measurements (ΔT m, ligand), was calculated by subtracting T m, 0 from each melting temperature obtained in the presence of a ligand (T m, ligand) using the DSF-analysis spreadsheet. The hit threshold was determined by calculating the standard deviation (SD) of the melting temperatures of CHK2 in the presence of ligand (T m, ligand) for every plate. Ligands with a T m, ligand>mean(T m, ligand) +2SD in at least one of the duplicates were defined as hits.

[4] = test system: ovarian cancer cell lines; conditions: cited from earlier work
[5] = cited from earlier work
cancer cell lines = test system: cancer cell lines; parameters: method as in PMID 19741151; conditions: cited from earlier work
CHK1 = target: T3, CHK1 (Homo sapiens, UniProt O14757); assay: CHK1 mobility shift assay; type: biochemical; conditions: inactive
T3 sequence (O14757 1-476): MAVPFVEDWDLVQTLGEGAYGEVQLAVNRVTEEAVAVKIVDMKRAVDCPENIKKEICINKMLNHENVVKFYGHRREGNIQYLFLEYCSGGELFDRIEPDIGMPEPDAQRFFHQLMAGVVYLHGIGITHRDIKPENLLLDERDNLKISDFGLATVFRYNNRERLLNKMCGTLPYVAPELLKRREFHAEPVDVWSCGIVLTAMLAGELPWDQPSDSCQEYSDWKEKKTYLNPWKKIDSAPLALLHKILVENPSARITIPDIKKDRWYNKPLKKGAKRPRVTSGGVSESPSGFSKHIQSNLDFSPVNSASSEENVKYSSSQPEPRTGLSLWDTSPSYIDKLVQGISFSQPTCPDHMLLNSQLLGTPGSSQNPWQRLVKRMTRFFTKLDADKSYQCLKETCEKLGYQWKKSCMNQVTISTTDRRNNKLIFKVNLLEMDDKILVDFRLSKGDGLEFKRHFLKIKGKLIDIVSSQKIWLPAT
Text: However, it is very difficult to assess the contribution to selectivity of binding in this pocket using the inhibitor 26, because its CHK2 selectivity is most likely dominated by the unusual binding of the benzamidazole scaffold to the hinge through a mediating water molecule.

[6] = follow-up compounds from similarity search (Table 2)

inhibition at 300 µM (full-length CHK2 [1]) [%]	Ligand Efficiency (full-length CHK2 [2]; Table 1) [kcal mol^−1 HA^−1]	IC50 (full-length CHK2 [2]; fragment hits, 100 µM ATP) [µM]	T m, ligand (standard deviations from the plate mean) [3] [standard deviations]	ΔT m, ligand [3]	SMILES	also measured
71.5 ± 25.5	0.47	76.2 ± 3.3	4.2	3.7±0.9 °C	Nc1cc(-c2cccnc2)n[nH]1 [Compound 17]	–
–	–	–	–	–	COc1cc2nc(-c3cc(F)ccc3O)nc(N[C@@H]3CNC[C@H]3C(C)(C)O)c2cc1OC [CCT241533]	Potentiation in combination with genotoxic agents [4]: no such effects have been observed; Potentiation of the cytotoxicity of PARP inhibitors such as AG14447 and olaparib [5]: potentiates the cytotoxicity
–	–	–	–	–	C/C(=N\NC(=N)N)c1ccc(NC(=O)c2cc3cccc([N+](=O)[O-])c3[nH]2)cc1 [PV1019, 7-nitro-1H-indole-2-carboxylic acid {4-[1-(guanidinohydrazone)-ethyl]-phenyl}-amide]	Potentiation of the cytotoxicity of topotecan and campothecan ([4]; ovarian cancer cell lines): potentiation of the cytotoxicity; Antiproliferative effect (cancer cell lines): antiproliferative effect
76.1 ± 1.1	0.36	11.7 ± 2	5.7	5.6±0.3 °C	O=C(NCc1ccco1)c1ccc2nccnc2c1 [Compound 13]	IC50 (CHK1): > 200 µM
–	–	–	–	–	c1coc(-c2ccnc3[nH]nc(C4CC4)c23)c1 [Compound 20]	Ligand Efficiency (full-length CHK2 [2]; Table 2): 0.42 kcal mol^−1 HA^−1; IC50 (full-length CHK2 [2]; [6]): 7.2 ± 2.9 µM
59.5 ± 1.9	0.34	36.9 ± 9	4.3	4.5±0.02 °C	CC(C)(C)NC(=O)Nc1ccc2nccnc2c1 [Compound 14]	–
91.4 ± 0.4	0.64	2.7 ± 0.2	5.8	7.0±0.8 °C	c1ccc2c(c1)[nH]c1ncnn12 [Compound 11]	–
58.2 ± 1.7	0.47	85.6 ± 7.9	2.9	3.0 ^f °C	C/C(=N/O)c1ccc(O)cc1O [Compound 12]	–
–	–	–	–	–	COc1ccc(CNC(=O)c2ccc3nccnc3c2)cc1 [Compound 22]	IC50 (CHK1): > 200 µM; Ligand Efficiency (full-length CHK2 [2]; Table 2): 0.34 kcal mol^−1 HA^−1; IC50 (full-length CHK2 [2]; [6]): 3.6 ± 1.2 µM
60.9 ± 2.1	0.47	76.8 ± 1.4	4.6	3.9±1.3 °C	Cc1n[nH]c(N)c1-c1cccs1 [Compound 18]	–
34.7 ± 0.93	0.26	228 ± 22.2	5.7	4.0±0.6 °C	CC(=O)N1CCC(C(=O)Nc2ccc(C)cn2)CC1 [Compound 19]	–
–	–	–	–	–	CC(CO)NC(=N)c1c(O)nsc1Nc1ccc(Nc2ccc(Br)cc2)cc1 (centres unmarked) [VRX0466617]	Potentiation in combination with genotoxic agents [4]: no such effects have been observed
72.8 ± 6.7	0.55	15.9 ± 1.1	4.6	5.0±0.6 °C	Cc1ccc2ncnc(N)c2c1 [Compound 15]	–
56.1 ± 1	–	–	3.7	2.6±1.7 °C	Cc1cc(-c2ccccc2)n[nH]1 [Compound 16]	–
–	–	–	–	–	c1cncc(-c2n[nH]c3ccnc(-c4cccs4)c23)c1 [Compound 21]	Ligand Efficiency (full-length CHK2 [2]; Table 2): 0.32 kcal mol^−1 HA^−1; IC50 (full-length CHK2 [2]; [6]): 21.3 ± 2.1 µM
–	–	–	–	–	CCOC(=O)N1CCN(C(=O)Nc2ccc3nccnc3c2)CC1 [Compound 23]	Ligand Efficiency (full-length CHK2 [2]; Table 2): 0.28 kcal mol^−1 HA^−1; IC50 (full-length CHK2 [2]; [6]): 14.2 ± 8.6 µM
–	–	–	–	–	Nc1ncc(-c2ccsc2)cc1-c1ccc(C(=O)O)cc1 [Compound 27, 4-(2-amino-5-(thiophen-3-yl)pyridin-3-yl)benzoic acid, reference compound]	inhibition at 10 µM (full-length CHK2 [1]; concentration of 10 µM, read-out: AlphaScreen™ percentage inhibition, positive control): 62.7%
